Assay results: US20250268826A1, “IONIZABLE LIPIDOID COMPOSITIONS AND THERAPEUTIC USES THEREOF” (Flagship Pioneering Innovations VII, LLC, priority 2023, published 2025)

assay: LNP size and polydispersity index (PDI) by dynamic light scattering (DLS); format: physicochemical; settings: Table 11; LNP with hEPO mRNA, Lipid:DSPC:Cholesterol:DMG-PEG2k 50:10:38.5:1.5 mol % (ALC-0315: 46.3:9.4:42.7:1.6), N:P ratio 6; HEPES/sodium chloride/sucrose buffer, stored at −80C

| PDI | Size (nm) | SMILES |
| --- | --- | --- |
| 0.072 | 79.4 nm | CCCCCCCCC(CCCCCC)C(=O)OCCN(CCOC(=O)C(CCCCCC)CCCCCCCC)C(=O)C(C)CCN(C)CC.Cl (centres unmarked) [Compound 987f] |
| 0.097 | 70.5 nm | CCCCCCCCC(CCCCCC)C(=O)OCCN(CCOC(=O)C(CCCCCC)CCCCCCCC)C(=O)C(C)CCN(CC)CC.Cl (centres unmarked) [Compound 987g] |
| 0.099 | 69.1 nm | CCCCCCCCC(CCCCCC)C(=O)OCCN(CCOC(=O)C(CCCCCC)CCCCCCCC)C(=O)C(C)CCNCCC.Cl (centres unmarked) [Compound 987h] |
| 0.059 | 71.7 nm | CCCCCCCCC(CCCCCC)C(=O)OCCN(CCOC(=O)C(CCCCCC)CCCCCCCC)C(=O)C(C)CCN(C)CCC.Cl (centres unmarked) [Compound 987i] |
| 0.101 | 76.6 nm | CCCCCCCCC(CCCCCC)C(=O)OCCN(CCOC(=O)C(CCCCCC)CCCCCCCC)C(=O)C(C)CCN(CC)CCC.Cl (centres unmarked) [Compound 987j] |
| 0.045 | 76.7 nm | CCCCCCCCC(CCCCCC)C(=O)OCCN(CCOC(=O)C(CCCCCC)CCCCCCCC)C(=O)C(C)CCN(CCC)CCC.Cl (centres unmarked) [Compound 987k] |
| 0.051 | 76.4 nm | CCCCCCCCC(CCCCCC)C(=O)OCCN(CCOC(=O)C(CCCCCC)CCCCCCCC)C(=O)C(C)CCN1CCCC1.Cl (centres unmarked) [Compound 987l] |
| 0.076 | 73.7 nm | CCCCCCCCC(CCCCCC)C(=O)OCCN(CCOC(=O)C(CCCCCC)CCCCCCCC)C(=O)C(C)CCN1CCCCC1.Cl (centres unmarked) [Compound 987m] |
| 0.107 | 65.7 nm | CCCCCCCCC(CCCCCC)C(=O)OCCN(CCOC(=O)C(CCCCCC)CCCCCCCC)C(=O)C(C)CCN1CCOCC1.Cl (centres unmarked) [Compound 987n] |
| 0.121 | 57.4 nm | CCCCCCCCC(CCCCCC)C(=O)OCCN(CCOC(=O)C(CCCCCC)CCCCCCCC)C(=O)C(C)CCN(CCCC)CCCC.Cl (centres unmarked) [Compound 987o] |
| 0.114 | 74.2 nm | CCCCCCCCC(CCCCCC)C(=O)OCCN(CCOC(=O)C(CCCCCC)CCCCCCCC)C(=O)C(C)CCN(C)CCO.Cl (centres unmarked) [Compound 987p] |

same assay, conditions: Vaccine Study 2; LNP with spike mRNA, 50/10/38.5/1.5 mol % ionizable lipid:helper lipid:cholesterol:DMG-PEG2k, N-to-P ratio 6

| SMILES | PDI | Size (nm) |
| --- | --- | --- |
| CCCCCCCCC(CCCCCC)C(=O)OCCN(CCOC(=O)C(CCCCCC)CCCCCCCC)C(=O)CCCN(CCC)CCC.Cl (centres unmarked) [Compound 981] | 0.054 | 84.3 nm |

assay: LNP Zeta potential measured using a Zetasizer (Malvern); format: physicochemical; settings: Table 11; LNP with hEPO mRNA, Lipid:DSPC:Cholesterol:DMG-PEG2k 50:10:38.5:1.5 mol % (ALC-0315: 46.3:9.4:42.7:1.6), N:P ratio 6; HEPES/sodium chloride/sucrose buffer, stored at −80C

| Zeta potential (mV) | SMILES |
| --- | --- |
| −2.8 mV | CCCCCCCCC(CCCCCC)C(=O)OCCN(CCOC(=O)C(CCCCCC)CCCCCCCC)C(=O)C(C)CCN(C)CC.Cl (centres unmarked) [Compound 987f] |
| −3.5 mV | CCCCCCCCC(CCCCCC)C(=O)OCCN(CCOC(=O)C(CCCCCC)CCCCCCCC)C(=O)C(C)CCN(CC)CC.Cl (centres unmarked) [Compound 987g] |
| 0.0 mV | CCCCCCCCC(CCCCCC)C(=O)OCCN(CCOC(=O)C(CCCCCC)CCCCCCCC)C(=O)C(C)CCNCCC.Cl (centres unmarked) [Compound 987h] |
| −4.1 mV | CCCCCCCCC(CCCCCC)C(=O)OCCN(CCOC(=O)C(CCCCCC)CCCCCCCC)C(=O)C(C)CCN(C)CCC.Cl (centres unmarked) [Compound 987i] |
| −4.4 mV | CCCCCCCCC(CCCCCC)C(=O)OCCN(CCOC(=O)C(CCCCCC)CCCCCCCC)C(=O)C(C)CCN(CC)CCC.Cl (centres unmarked) [Compound 987j] |
| −3.4 mV | CCCCCCCCC(CCCCCC)C(=O)OCCN(CCOC(=O)C(CCCCCC)CCCCCCCC)C(=O)C(C)CCN(CCC)CCC.Cl (centres unmarked) [Compound 987k] |
| −2.9 mV | CCCCCCCCC(CCCCCC)C(=O)OCCN(CCOC(=O)C(CCCCCC)CCCCCCCC)C(=O)C(C)CCN1CCCC1.Cl (centres unmarked) [Compound 987l] |
| −5.1 mV | CCCCCCCCC(CCCCCC)C(=O)OCCN(CCOC(=O)C(CCCCCC)CCCCCCCC)C(=O)C(C)CCN1CCCCC1.Cl (centres unmarked) [Compound 987m] |
| −3.8 mV | CCCCCCCCC(CCCCCC)C(=O)OCCN(CCOC(=O)C(CCCCCC)CCCCCCCC)C(=O)C(C)CCN1CCOCC1.Cl (centres unmarked) [Compound 987n] |
| −4.1 mV | CCCCCCCCC(CCCCCC)C(=O)OCCN(CCOC(=O)C(CCCCCC)CCCCCCCC)C(=O)C(C)CCN(CCCC)CCCC.Cl (centres unmarked) [Compound 987o] |
| −1.5 mV | CCCCCCCCC(CCCCCC)C(=O)OCCN(CCOC(=O)C(CCCCCC)CCCCCCCC)C(=O)C(C)CCN(C)CCO.Cl (centres unmarked) [Compound 987p] |

same assay, conditions: Vaccine Study 2; LNP with spike mRNA, 50/10/38.5/1.5 mol % ionizable lipid:helper lipid:cholesterol:DMG-PEG2k, N-to-P ratio 6

| SMILES | Zeta (mV) |
| --- | --- |
| CCCCCCCCC(CCCCCC)C(=O)OCCN(CCOC(=O)C(CCCCCC)CCCCCCCC)C(=O)CCCN(CCC)CCC.Cl (centres unmarked) [Compound 981] | −8.8 mV |

assay: Apparent pKa of the LNPs by fluorescence based TNS assay; settings: Vaccine Study 2; LNP with spike mRNA, 50/10/38.5/1.5 mol % ionizable lipid:helper lipid:cholesterol:DMG-PEG2k, N-to-P ratio 6

| SMILES | Apparent pKa |
| --- | --- |
| CCCCCCCCC(CCCCCC)C(=O)OCCN(CCOC(=O)C(CCCCCC)CCCCCCCC)C(=O)CCCN(CCC)CCC.Cl (centres unmarked) [Compound 981] | 7.3 |
| CCCCC/C=C\C/C=C\CCCCCCCCC(CCCCCCCC/C=C\C/C=C\CCCCC)OC(=O)CCCN(C)C [Dlin-MC3-DMA, dilinoleylmethyl-4-dimethylaminobutyrate, reference compound] | 6.7 |

assay: Encapsulation efficiency (EE %) by fluorescence based Ribogreen assay; format: physicochemical; settings: Table 11; LNP with hEPO mRNA, Lipid:DSPC:Cholesterol:DMG-PEG2k 50:10:38.5:1.5 mol % (ALC-0315: 46.3:9.4:42.7:1.6), N:P ratio 6; HEPES/sodium chloride/sucrose buffer, stored at −80C

| Encapsulation Efficiency % | SMILES |
| --- | --- |
| 92.3% | CCCCCCCCC(CCCCCC)C(=O)OCCN(CCOC(=O)C(CCCCCC)CCCCCCCC)C(=O)C(C)CCN(C)CC.Cl (centres unmarked) [Compound 987f] |
| 95.4% | CCCCCCCCC(CCCCCC)C(=O)OCCN(CCOC(=O)C(CCCCCC)CCCCCCCC)C(=O)C(C)CCN(CC)CC.Cl (centres unmarked) [Compound 987g] |
| 99.4% | CCCCCCCCC(CCCCCC)C(=O)OCCN(CCOC(=O)C(CCCCCC)CCCCCCCC)C(=O)C(C)CCNCCC.Cl (centres unmarked) [Compound 987h] |
| 94.9% | CCCCCCCCC(CCCCCC)C(=O)OCCN(CCOC(=O)C(CCCCCC)CCCCCCCC)C(=O)C(C)CCN(C)CCC.Cl (centres unmarked) [Compound 987i] |
| 95.7% | CCCCCCCCC(CCCCCC)C(=O)OCCN(CCOC(=O)C(CCCCCC)CCCCCCCC)C(=O)C(C)CCN(CC)CCC.Cl (centres unmarked) [Compound 987j] |
| 87.2% | CCCCCCCCC(CCCCCC)C(=O)OCCN(CCOC(=O)C(CCCCCC)CCCCCCCC)C(=O)C(C)CCN(CCC)CCC.Cl (centres unmarked) [Compound 987k] |
| 95.9% | CCCCCCCCC(CCCCCC)C(=O)OCCN(CCOC(=O)C(CCCCCC)CCCCCCCC)C(=O)C(C)CCN1CCCC1.Cl (centres unmarked) [Compound 987l] |
| 94.9% | CCCCCCCCC(CCCCCC)C(=O)OCCN(CCOC(=O)C(CCCCCC)CCCCCCCC)C(=O)C(C)CCN1CCCCC1.Cl (centres unmarked) [Compound 987m] |
| 77.8% | CCCCCCCCC(CCCCCC)C(=O)OCCN(CCOC(=O)C(CCCCCC)CCCCCCCC)C(=O)C(C)CCN1CCOCC1.Cl (centres unmarked) [Compound 987n] |
| 90.2% | CCCCCCCCC(CCCCCC)C(=O)OCCN(CCOC(=O)C(CCCCCC)CCCCCCCC)C(=O)C(C)CCN(CCCC)CCCC.Cl (centres unmarked) [Compound 987o] |
| 99.2% | CCCCCCCCC(CCCCCC)C(=O)OCCN(CCOC(=O)C(CCCCCC)CCCCCCCC)C(=O)C(C)CCN(C)CCO.Cl (centres unmarked) [Compound 987p] |

same assay, conditions: Vaccine Study 2; LNP with spike mRNA, 50/10/38.5/1.5 mol % ionizable lipid:helper lipid:cholesterol:DMG-PEG2k, N-to-P ratio 6

| SMILES | EE (%) |
| --- | --- |
| CCCCCCCCC(CCCCCC)C(=O)OCCN(CCOC(=O)C(CCCCCC)CCCCCCCC)C(=O)CCCN(CCC)CCC.Cl (centres unmarked) [Compound 981] | 98.3% |
